Legend:
[1] = Partition coefficient (logP); type: physicochemical; details: octanol/water
[2] = system: Mus musculus; experiment: In vivo antitumor activity was determined after administration of compound (1.0 umol/kg) in mice bearing RIF tumors exposed to laser light (135 J/cm**2) on day 1-2; type: functional
[3] = system: Mus musculus; experiment: In vivo antitumor activity was determined after administration of compound (1.0 umol/kg) in mice bearing RIF tumors exposed to laser light (135 J/cm**2) on day 14; type: functional
[4] = system: Mus musculus; experiment: In vivo antitumor activity was determined after administration of compound (1.0 umol/kg) in mice bearing RIF tumors exposed to laser light (135 J/cm**2) on day 21; type: functional
[5] = system: Mus musculus; experiment: In vivo antitumor activity was determined after administration of compound (1.0 umol/kg) in mice bearing RIF tumors exposed to laser light (135 J/cm**2) on day 30; type: functional
[6] = system: Mus musculus; experiment: In vivo antitumor activity was determined after administration of compound (1.0 umol/kg) in mice bearing RIF tumors exposed to laser light (135 J/cm**2) on day 7; type: functional
[7] = system: Mus musculus; experiment: In vivo antitumor activity was determined after administration of compound (1.0 umol/kg) in mice bearing RIF tumors exposed to laser light (135 J/cm**2) on day 1-2; No rseponse; type: functional, organism-based
[8] = system: Mus musculus; experiment: In vivo antitumor activity was determined after administration of compound (1.0 umol/kg) in mice bearing RIF tumors exposed to laser light (135 J/cm**2) on day 14; No rseponse; type: functional, organism-based
[9] = system: Mus musculus; experiment: In vivo antitumor activity was determined after administration of compound (1.0 umol/kg) in mice bearing RIF tumors exposed to laser light (135 J/cm**2) on day 21; No rseponse; type: functional, organism-based
[10] = system: Mus musculus; experiment: In vivo antitumor activity was determined after administration of compound (1.0 umol/kg) in mice bearing RIF tumors exposed to laser light (135 J/cm**2) on day 30; No rseponse; type: functional, organism-based
[11] = system: Mus musculus; experiment: In vivo antitumor activity was determined after administration of compound (1.0 umol/kg) in mice bearing RIF tumors exposed to laser light (135 J/cm**2) on day 7; No rseponse; type: functional, organism-based
[12] = system: Mus musculus; experiment: In vivo antitumor activity was determined after administration of compound (1.0 umol/kg) in mice bearing RIF tumors exposed to laser light (135 J/cm**2) on day 7; Tumor regrowth; type: functional, organism-based

Question: For CCCCCCCOC(C)C1=C(C)c2cc3nc(c4c5[nH]c(cc6[nH]c(cc1n2)c(C)c6CC)c(C)c5C(=O)N(CCCCCC)C4=O)[C@@H](CCC(=O)OC)[C@@H]3C (some centres not stated), which logP [1] is on record?
Answer: The logP was 10.83.

Question: What about the Tumor cure [2] of the same molecule?
Answer: The Tumor cure was 100%.

Question: And the Tumor cure [3]?
Answer: Its Tumor cure is 100%.

Question: What about the Tumor cure [4] of the same molecule?
Answer: The Tumor cure was 100%.

Question: And the Tumor cure [5]?
Answer: The Tumor cure was 100%.

Question: And the Tumor cure [6]?
Answer: Its Tumor cure is 100%.

Question: For CCCCCCCOC(C)c1c(C)c2cc3[nH]c(cc4nc(c5c6nc(cc1[nH]2)C(C)=C6C(=O)N(CCCCCC)C5=O)[C@@H](CCC(=O)OC)[C@@H]4C)c(C)c3CC (some centres not stated), which logP [1] is on record?
Answer: Its logP is 10.83.

Question: And the Tumor cure [7]?
Answer: Its Tumor cure is “No response”.

Question: And the Tumor cure [8]?
Answer: Its Tumor cure is “No response”.

Question: And the Tumor cure [9]?
Answer: Its Tumor cure is “No response”.

Question: And the Tumor cure [10]?
Answer: Its Tumor cure is “No response”.

Question: And the Tumor cure [11]?
Answer: Its Tumor cure is “No response”.

Question: What does the source list for CCCCCCCOCc1c2nc(c3c4nc(cc5[nH]c(cc6[nH]c1c(C)c6CC)c(C)c5CC)C(C)=C4C(=O)N(CCCCCC)C3=O)[C@@H](CCC(=O)OC)[C@@H]2C?
Answer: logP [1]: 10.78; Tumor cure [2]: 50%; Tumor cure [3]: 50%; Tumor cure [4]: 50%; Tumor cure [5]: 50%; Tumor cure [6]: 50%

Question: Which results are given for CCCCCCCCOCC1=C(C)c2cc3nc(c4c5[nH]c(cc6[nH]c(cc1n2)c(C)c6CC)c(C)c5C(=O)N(CCCCCC)C4=O)[C@@H](CCC(=O)OC)[C@@H]3C?
Answer: logP [1]: 10.8; Tumor cure [7]: No response; Tumor cure [8]: No response; Tumor cure [9]: No response; Tumor cure [10]: No response; Tumor cure [11]: No response

Question: For CCCCCCCCCCN1C(=O)c2c3nc(cc4nc(cc5[nH]c(cc6[nH]c2c(c6C)C1=O)c(CC)c5C)C(CC)=C4C)[C@@H](C)[C@@H]3CCC(=O)OC, which logP [1] is on record?
Answer: The logP was 10.62.

Question: What about the Tumor cure [2] of the same molecule?
Answer: Its Tumor cure is 100%.

Question: What about the Tumor cure [12] of the same molecule?
Answer: Its Tumor cure is “Tumour regrowth”.
